Usually Km stands for the substrate concentration at which the rate is half of its maximum. What is called kcat is the maximal rate divided by the concentration of active sites.

The source of these data is PMC9060491, “Biochemical and structural characterization of an aromatic ring–hydroxylating dioxygenase for terephthalic acid catabolism” (Proceedings of the National Academy of Sciences of the …, 2022).

Series [1] deals with T1, terephthalate dioxygenase (TPADO; TphA2/TphA3) (Comamonas sp., UniProt Q3C1D5).
T1 construct: gene tphA2II; alpha with C-terminal His6, coexpressed with beta from pET-DUET in E. coli; alpha3beta3 heterohexamer, 196 kDa; Rieske [2Fe-2S] and mononuclear Fe(II); with Terephthalate 1,2-dioxygenase, terminal oxygenase component subunit beta
T1 sequence (Q3C1E2 whole entry, one chain of several, further chain): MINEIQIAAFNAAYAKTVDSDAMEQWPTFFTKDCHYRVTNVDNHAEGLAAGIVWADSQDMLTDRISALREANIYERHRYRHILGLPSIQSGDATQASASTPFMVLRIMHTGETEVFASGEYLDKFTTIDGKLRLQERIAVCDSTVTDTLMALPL
Put plainly: HPLC end point, NADH and analog consumption. The series is classed as biochemical. The following applies: uncoupler, not oxygenated; 90 min in air, limiting NADH, with TphA1 reductase.

For a further series, the target named is T2, TPADO reductase (TphA1) (Comamonas sp., UniProt Q3C1E0).
T2 construct: gene tphA1I; C-terminal His6, expressed in E. coli; plant-type [2Fe-2S], flavin
T2 sequence (Q3C1E0 whole entry): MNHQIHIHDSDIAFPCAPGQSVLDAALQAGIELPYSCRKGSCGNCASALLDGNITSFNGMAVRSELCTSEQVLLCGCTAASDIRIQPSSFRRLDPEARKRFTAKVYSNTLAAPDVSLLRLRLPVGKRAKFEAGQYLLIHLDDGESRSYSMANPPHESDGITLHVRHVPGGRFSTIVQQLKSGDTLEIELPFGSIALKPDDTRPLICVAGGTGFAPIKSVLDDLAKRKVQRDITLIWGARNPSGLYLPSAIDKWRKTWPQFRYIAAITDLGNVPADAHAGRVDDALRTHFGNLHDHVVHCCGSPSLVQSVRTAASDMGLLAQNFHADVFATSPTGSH
Nature of the series: HPLC of TPADO/reductase reaction. The series is classed as biochemical. The following applies: electron donor in the coupled system with TPADO and TPA; NADPH not used.

Substrate in series [2]: O=C(O)c1ccc(C(=O)O)cc1
Put plainly: steady-state kinetics, Michaelis-Menten fit. Conditions: ambient air (O2 not shown saturating), NADH, with TphA1 reductase. The series is classed as biochemical, Comamonas sp.

Regarding `O=C(O)c1ccc([N+](=O)[O-])cc1` [4-NBA, 4-nitrobenzoic acid], the “% NADH consumption” value in series [1] is on record as 100%. As to `NC(=O)C1=CN([C@@H]2O[C@H](COP(=O)(O)OP(=O)(O)OC[C@H]3O[C@@H](n4cnc5c(N)ncnc54)[C@H](O)[C@@H]3O)[C@@H](O)[C@H]2O)C=CC1` [NADH], the “HPLC of TPADO/reductase reaction” value on TPADO reductase (TphA1) is on record as “specifically in the presence of nicotinamide adenine dinucleotide hydride (NADH) rather than its phosphorylated analog”.

B1: terephthalate dioxygenase (TPADO; TphA2/TphA3) (Comamonas sp.) (protein)
chain: MQESIIQWHGATNTRVPFGIYTDTANADQEQQRIYRGEVWNYLCLESEIPGAGDFRTTFAGETPIVVVRDADQEIYAFENRCAHRGALIALEKSGRTDSFQCVYHAWSYNRQGDLTGVAFEKGVKGQGGMPASFCKEEHGPRKLRVAVFCGLVFGSFSEDVPSIEDYLGPEICERIERVLHKPVEVIGRFTQKLPNNWKLYFENVKDSYHASLLHMFFTTFELNRLSQKGGVIVDESGGHHVSYSMIDRGAKDDSYKDQAIRSDNERYRLKDPSLLEGFEEFEDGVTLQILSVFPGFVLQQIQNSIAVRQLLPKSISSSELNWTYLGYADDSAEQRKVRLKQANLIGPAGFISMEDGAVGGFVQRGIAGAANLDAVIEMGGDHEGSSEGRATETSVRGFWKAYRKHMGQEMQA
notes: alpha with C-terminal His6, coexpressed with beta from pET-DUET in E. coli; alpha3beta3 heterohexamer, 196 kDa; Rieske [2Fe-2S] and mononuclear Fe(II); with Terephthalate 1,2-dioxygenase, terminal oxygenase component subunit beta
As for B1, in series [2], the Km was 9.6 ± 1 µM and the kcat worked out at 12 ± 0.3 min⁻¹.
